The test system of one experiment is MYB CJ mRNA. Kind of experiment: Gene panel canonical junction qPCR assay, MYB. The class given is cell-based. The note with it: Homo sapiens, larger gene panel, read-out: MYB IC50 (decrease in CJ mRNA levels). As for the experimental part:
Compounds described herein were used to modulate RNA transcript abundance in cells. The expression of a target mRNA was measured by detecting the formation of an exon-exon junction in the canonical transcript (CJ). A compound mediated exon-inclusion event was detected by observing an increase in formation of a new junction with an alternative exon (AJ). Real-time qPCR assays were used to detect these splicing switches and interrogate the potency of various compounds towards different target genes. A high-throughput real time quantitative PCR (RT-qPCR) assay was developed to measure these two isoforms of the mRNA (CJ and AJ) for exemplary genes, such as HTT, SMN2, and MYB, together with a control housekeeping gene, GAPDH or GUSB or PPIA, used for normalization. Briefly, the A673 or K562 cell line was treated with various compounds described herein (e.g., compounds of Formula (I)). After treatment, the levels of the HTT, MYB, or SMN2 mRNA targets were determined from each sample of cell lysate by cDNA synthesis followed by qPCR.
The A673 cell line was cultured in DMEM with 10% FBS. Cells were diluted with full growth media and plated in a 96-well plate (15,000 cells in 100 ul media per well). The plate was incubated at 37° C. with 5% CO2 for 24 hours to allow cells to adhere. An 11-point 3-fold serial dilution of the compounds was made in DMSO then diluted in media in an intermediate plate. Compounds were transferred from the intermediate plate to the cell plate with the top dose at a final concentration of 10 uM in the well. Final DMSO concentration was kept at or below 0.25%. The cell plate was returned to the incubator at 37° C. with 5% CO2 for an additional 24 hours.
The K562 cell line was cultured in IMDM with 10% FBS. For K562, cells were diluted with full growth media and plated in either a 96-well plate (50,000 cells in 50 uL media per well) or a 384-well plate (8,000-40,000 cells in 45 uL media per well). An 11-point 3-fold serial dilution of the compounds were made in DMSO then diluted in media in an intermediate plate. Compound was transferred from the intermediate plate to the cell plate with the top dose at a final concentration of 10 uM in the well. Final DMSO concentration was kept at or below 0.25%. Final volume was 100 uL for 96-well plate and 50 uL for 384-well plate. The cell plate was then placed in an incubator at 37° C. with 5% CO2 for 24 hours.
The data analysis was performed by first determining the ΔCt vs the housekeeper gene. This ΔCt was then normalized against the DMSO control (ΔΔCt) and converted to RQ (relative quantification) using the 2^(−ΔΔCt) equation. The RQ were then converted to a percentage response by arbitrarily setting an assay window of 3.5 and 4.0 ΔCt for HTT-CJ and MYB-CJ respectively and an assay window of 9 and 3 ΔCt for HTT-AJ and MYB-AJ in 96 well format (50,000 K562 cells/well and 15,000 A673 cells per well) and an assay window of 3 and 4 ΔCt for HTT-CJ and MYB-CJ respectively and an assay window of 5 and 3 ΔCt for HTT-AJ and MYB-AJ respectively in 384 well format (8,000 K562 cells/well example). […] The percentage response was then fitted to the 4 parametric logistic equation to evaluate the concentration dependence of compound treatment. The increase in AJ mRNA is reported as AC50 (compound concentration having […] in AJ increase) while the decrease in CJ mRNA levels is reported as IC50 (compound concentration having 50% response in CJ decrease).
Additional studies were carried out for a larger panel of genes using the protocol provided above. The junction between flanking upstream and downstream exons was used to design canonical junction qPCR assays. At least one of the forward primer, reverse primer or the CY5-labeled 5′ nuclease probe (with 3′ quencher such as ZEN/Iowa Black FQ) was designed to overlap with the exon junction to capture the CJ mRNA transcript. […]

In experiment [1] the test system is HiBiT-tagged Target C protein in K562 cells. Put plainly: HiBiT protein abundance assay, Target C. Type of experiment: cell-based, human. The note with it: HiBiT-modified K562 cells, 24 hours, luminescence. A digest of the protocol:
(§1)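 K562 lines with the endogenous target HiBiT-tagged, seeded in IMDM+1% FBS, got a 10-point 3-fold dilution series (top final 10 μM, DMSO ≤0.25%) for 24 hours at 37° C. Lytic LgBiT luminescence was normalized against unmodified-K562 and DMSO-only controls, and IC50 was interpolated at 50% from a four-parameter logistic fit.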

Experiment [2] concerns HiBiT-tagged HTT protein in K562 cells. Put plainly: HiBiT protein abundance assay, HTT. The class given is cell-based, human. The note with it: HiBiT-modified K562 cells, 24 hours, luminescence. A digest of the protocol: as §1
Background: The HiBiT peptide binds its large partner to form an active luciferase.

Experiment [3] deals with HiBiT-tagged MYB protein in K562 cells. Put plainly: HiBiT protein abundance assay, MYB. Type of experiment: cell-based, human. The note with it: HiBiT-modified K562 cells, 24 hours, luminescence. A digest of the protocol: as §1

SMILES strings stand for the structures.

Regarding `Cc1cn2nc(-c3cn4c(=O)cc(N5CCNC6(CC6)C5)nc4s3)cc(C)c2n1` [Compound 212, 2-(2,8-dimethylimidazo[1,2-b]pyridazin-6-yl)-7-(4,7-diazaspiro[2.5]octan-7-yl)-5H-thiazolo[3,2-a]pyrimidin-5-one], the IC50 (in the experiment on MYB CJ mRNA; in experiment [1]; in experiment [2]; in experiment [3]) was 1 to 10 µM throughout.

Take `Cc1cn2cc(-c3cn4c(=O)cc(N5CCNCC5)nc4s3)cc(F)c2n1` [Compound 213, 2-(8-fluoro-2-methylimidazo[1,2-a]pyridin-6-yl)-7-(piperazin-1-yl)-5H-thiazolo[3,2-a]pyrimidin-5-one]: the IC50 (in the experiment on MYB CJ mRNA; in experiment [1]; in experiment [2]; in experiment [3]) was over 10 µM throughout.

Regarding `Cc1cn2cc(-c3nn4c(=O)cc(N5CCNCC5)nc4s3)cc(F)c2n1` [Compound 214, 2-(8-fluoro-2-methylimidazo[1,2-a]pyridin-6-yl)-7-(piperazin-1-yl)-5H-[1,3,4]thiadiazolo[3,2-a]pyrimidin-5-one], the IC50 with MYB CJ mRNA was 1 to 10 µM; in experiment [1], over 10 µM; in experiment [2] it was over 10 µM; in experiment [3], over 10 µM.

In the case of `Cc1cn2cc(-c3nn4c(=O)cc(N5CCNC6(CC6)C5)nc4s3)cc(F)c2n1` [Compound 216, 2-(8-fluoro-2-methylimidazo[1,2-a]pyridin-6-yl)-7-(4,7-diazaspiro[2.5]octan-7-yl)-5H-[1,3,4]thiadiazolo[3,2-a]pyrimidin-5-one], the half-maximal inhibitory concentration (IC50) (in the experiment with MYB CJ mRNA; in experiment [1]; in experiment [2]; in experiment [3]) was 1 to 10 µM in each case.

For `Cc1cn2cc(-c3nn4c(=O)cc(N5CCN(C)CC5)nc4s3)cc(F)c2n1` [Compound 217, 2-(8-fluoro-2-methylimidazo[1,2-a]pyridin-6-yl)-7-(4-methylpiperazin-1-yl)-5H-[1,3,4]thiadiazolo[3,2-a]pyrimidin-5-one], the IC50 (with MYB CJ mRNA; in experiment [1]; in experiment [2]; in experiment [3]) was 1 to 10 µM in each case.

As to `Cc1cn2cc(-c3nn4c(=O)cc(N5CCN(C)C6(CC6)C5)nc4s3)cc(F)c2n1` [Compound 218, 2-(8-fluoro-2-methylimidazo[1,2-a]pyridin-6-yl)-7-(4-methyl-4,7-diazaspiro[2.5]octan-7-yl)-5H-[1,3,4]thiadiazolo[3,2-a]pyrimidin-5-one], the IC50 (with MYB CJ mRNA; in experiment [1]; in experiment [2]; in experiment [3]) was 1 to 10 µM throughout.

For the compound `Cn1cc2cc(-n3cnc4nc(N5CCNCC5)sc4c3=O)ccc2n1` [Compound 225, 6-(2-methyl-2H-indazol-5-yl)-2-(piperazin-1-yl)thiazolo[4,5-d]pyrimidin-7(6H)-one], the IC50 (in the experiment with MYB CJ mRNA; in experiment [1]; in experiment [2]; in experiment [3]) was over 10 µM throughout.

Consider `Cc1cn2cc(-n3cnc4nc(N5CCNCC5)sc4c3=O)cc(F)c2n1` [Compound 226, 6-(8-fluoro-2-methylimidazo[1,2-a]pyridin-6-yl)-2-(piperazin-1-yl)thiazolo[4,5-d]pyrimidin-7(6H)-one], for which the IC50 (with MYB CJ mRNA; in experiment [1]; in experiment [2]; in experiment [3]) was 0.1 to 1 µM in each case.

`Cc1cn2cc(-n3cnc4nc(N5CCN(C)CC5)sc4c3=O)cc(F)c2n1` [Compound 228, 6-(8-fluoro-2-methylimidazo[1,2-a]pyridin-6-yl)-2-(4-methylpiperazin-1-yl)thiazolo[4,5-d]pyrimidin-7(6H)-one]: the IC50 (in the experiment with MYB CJ mRNA; in experiment [1]; in experiment [2]; in experiment [3]) was 1 to 10 µM each time.

As a reminder, the IC50 is the concentration that inhibits the measured activity by half.

The record behind these values is patent US20240366612A1, “COMPOUNDS AND METHODS FOR MODULATING NUCLEIC ACID SPLICING” (REMIX THERAPEUTICS INC., priority 2021, published 2024).
